Measured values taken from publication PMC7586935 (Journal of Clinical Pharmacology, 2020).
Counter-ions that a name gives are not always drawn. Like-named read-outs stand apart in the source and are kept apart here.

Assays:
healthy volunteers [1] = experiment: ECG outlier analyses; assay type: in vivo, human
[2] = mean ± SE, cited from earlier work
healthy volunteers [3] = experiment: ECG morphological analyses; assay type: in vivo, human
[4] = Plasma pharmacokinetics after single oral dose; assay type: in vivo; conditions: human; for AUC / Tmax: oral; for Cmax: po
CYP3A4 = conditions: cited from earlier work
healthy volunteers [5] = experiment: Safety assessment: treatment-emergent adverse events; assay type: in vivo, human
[6] = 50 mg trazodone HCl with ritonavir (4 doses of 200 mg)
[7] = 50 mg trazodone HCl, control condition

AUC ([4]; 20 mg): 2150 ± 909 ng·h/mL
Tmax ([4]; 20 mg): 30 min
AUC ([4]; 60 mg): 6240 ± 2030 ng·h/mL
Tmax ([4]; 60 mg): 30 min
AUC ([4]; 140 mg): 12800 ± 4910 ng·h/mL
Tmax ([4]; 140 mg): 18 min
Cmax ([4]; 20 mg): 413 ± 79.1 ng/mL
Cmax ([4]; 60 mg): 1270 ± 598 ng/mL
Cmax ([4]; 140 mg): 2080 ± 600 ng/mL
Structure (SMILES): O=c1n(CCCN2CCN(c3cccc(Cl)c3)CC2)nc2ccccn12 [Trazodone, Trazodone hydrochloride]
QTcF >60 ms inc change from baseline (healthy volunteers [1]; trazodone 20 mg, n = 18): 0 n (%)
QTcF New >480 ms (healthy volunteers [1]; trazodone 20 mg, n = 18): 0 n (%)
QTcF New >500 ms (healthy volunteers [1]; trazodone 20 mg, n = 18): 0 n (%)
Heart rate: Bradycardic outliers (healthy volunteers [1]; trazodone 60 mg, n = 18): 0 n (%)
Heart rate: Tachycardic outliers (healthy volunteers [1]; trazodone 60 mg, n = 18): 1 (6) n (%)
PR interval: Outliers (healthy volunteers [1]; trazodone 60 mg, n = 18): 0 n (%)
QRS interval: Outliers (healthy volunteers [1]; trazodone 60 mg, n = 18): 0 n (%)
QTcF >30‐60 ms inc change from baseline (healthy volunteers [1]; trazodone 60 mg, n = 18): 1 (6) n (%)
QTcF >60 ms inc change from baseline (healthy volunteers [1]; trazodone 60 mg, n = 18): 0 n (%)
QTcF New >480 ms (healthy volunteers [1]; trazodone 60 mg, n = 18): 0 n (%)
QTcF New >500 ms (healthy volunteers [1]; trazodone 60 mg, n = 18): 0 n (%)
Heart rate: Bradycardic outliers (healthy volunteers [1]; trazodone 140 mg, n = 20): 1 (5) n (%)
Heart rate: Tachycardic outliers (healthy volunteers [1]; trazodone 140 mg, n = 20): 2 (10) n (%)
PR interval: Outliers (healthy volunteers [1]; trazodone 140 mg, n = 20): 1 (5) n (%)
QRS interval: Outliers (healthy volunteers [1]; trazodone 140 mg, n = 20): 0 n (%)
QTcF >30‐60 ms inc change from baseline (healthy volunteers [1]; trazodone 140 mg, n = 20): 6 (30) n (%)
QTcF >60 ms inc change from baseline (healthy volunteers [1]; trazodone 140 mg, n = 20): 0 n (%)
QTcF New >480 ms (healthy volunteers [1]; trazodone 140 mg, n = 20): 2 (10) n (%)
QTcF New >500 ms (healthy volunteers [1]; trazodone 140 mg, n = 20): 0 n (%)
Elimination half-life [2, 6]: 894 ± 234 min
Peak plasma concentrations [2, 6]: 1125 ± 111 ng/mL
Elimination half-life [2, 7]: 402 ± 42 min
Peak plasma concentrations [2, 7]: 842 ± 64 ng/mL
New ST‐segment depression changes (healthy volunteers [3]; trazodone 20 mg, n = 18): 0 n (%)
New ST‐segment elevation changes (healthy volunteers [3]; trazodone 20 mg, n = 18): 0 n (%)
New second‐degree heart block (healthy volunteers [3]; trazodone 20 mg, n = 18): 0 n (%)
New third‐degree heart block (healthy volunteers [3]; trazodone 20 mg, n = 18): 0 n (%)
New ST‐segment depression changes (healthy volunteers [3]; trazodone 60 mg, n = 18): 1 (6) n (%)
New ST‐segment elevation changes (healthy volunteers [3]; trazodone 60 mg, n = 18): 0 n (%)
New second‐degree heart block (healthy volunteers [3]; trazodone 60 mg, n = 18): 0 n (%)
New third‐degree heart block (healthy volunteers [3]; trazodone 60 mg, n = 18): 0 n (%)
New ST‐segment depression changes (healthy volunteers [3]; trazodone 140 mg, n = 20): 0 n (%)
New ST‐segment elevation changes (healthy volunteers [3]; trazodone 140 mg, n = 20): 0 n (%)
New second‐degree heart block (healthy volunteers [3]; trazodone 140 mg, n = 20): 0 n (%)
New third‐degree heart block (healthy volunteers [3]; trazodone 140 mg, n = 20): 0 n (%)
Metabolic pathway (CYP3A4): primarily metabolized by CYP3A4
Dizziness, frequency of subjects (healthy volunteers [5]; trazodone 20 mg): 0%
Somnolence, frequency of subjects (healthy volunteers [5]; trazodone 20 mg): 44.4%
Dizziness, frequency of subjects (healthy volunteers [5]; trazodone 60 mg): 5.6%
Somnolence, frequency of subjects (healthy volunteers [5]; trazodone 60 mg): 50.0%
Headache, frequency of subjects (healthy volunteers [5]; trazodone 140 mg): 10%
Somnolence, frequency of subjects (healthy volunteers [5]; trazodone 140 mg): 85.0%
Vomiting, frequency of subjects (healthy volunteers [5]; trazodone 140 mg): 10%
Treatment-related ECG QT prolongation, frequency of subjects (healthy volunteers [5]; trazodone 140 mg, 1 subject): 5%
Treatment-related abdominal discomfort, frequency of subjects (healthy volunteers [5]; trazodone 140 mg, 1 subject): 5%
Treatment-related hypertension, frequency of subjects (healthy volunteers [5]; trazodone 140 mg, 1 subject): 5%
Treatment-related hypotension, frequency of subjects (healthy volunteers [5]; trazodone 140 mg, 1 subject): 5%
Treatment-related palpitations, frequency of subjects (healthy volunteers [5]; trazodone 140 mg, 1 subject): 5%
